This is an account of results in patent US20260184710A1, “CASITAS B-LINEAGE LYMPHOMA PROTOONCOGENE B (CBL-B) DEGRADING COMPOUNDS AND ASSOCIATED METHODS OF USE” (Arvinas Operations, Inc., priority 2022, published 2026).

Assay [1] deals with T1, Cbl-b (Homo sapiens, UniProt Q13191).
T1 construct: Cbl-b-HiBit KI Jurkat Cells were purchased from Promega; host or cells: Cbl-b-HiBiT knock-in Jurkat cells
Briefly: Cbl-b Degradation Method A (FACS, anti-Cbl-b antibody staining). It counts as cell-based. As to conditions: Cbl-b-HiBit KI Jurkat Cells, incubated at least 20 hours; for DC50: half maximal degradation, read-out: Cbl-b Degredation Method A IC50; for Dmax: Jurkat, maximum degradation observed, read-out: Cbl-b Degredation Method A Dmax (%). In a few lines: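 Cbl-b-HiBit KI Jurkat cells treated with compound for at least 20 h at 37 °C, then fixed, permeabilized and stained with anti-Cbl-b antibody plus anti-rabbit AF488 secondary. Cbl-b levels read by FACS; DC50 and Dmax (percent of control) derived.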

For assay [2], the target named is T1, Cbl-b. The assay is described as follows: Cbl-b Degradation Method B (Nano-Glo HiBiT lytic detection). Format: cell-based. As to conditions: Cbl-b-HiBit KI Jurkat Cells, incubated at least 6-24 hours; for DC50: half maximal degradation, read-out: Cbl-b Degredation Method B IC50; for Dmax: maximum degradation observed, read-out: Cbl-b Degredation Method B Dmax (%). In a few lines: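 Cbl-b-HiBiT knock-in Jurkat cells (20,000/well) were treated after ~24 h plating with an 11-point 1:3 series for 6-24 h at 37° C. Remaining Cbl-b measured by Nano-Glo HiBiT lytic luminescence. DC50 and Dmax expressed as % of control.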
Background: HiBiT is a short tag that completes a luciferase, so light tracks the accessible tagged protein.

T1 sequence (Q13191 whole entry): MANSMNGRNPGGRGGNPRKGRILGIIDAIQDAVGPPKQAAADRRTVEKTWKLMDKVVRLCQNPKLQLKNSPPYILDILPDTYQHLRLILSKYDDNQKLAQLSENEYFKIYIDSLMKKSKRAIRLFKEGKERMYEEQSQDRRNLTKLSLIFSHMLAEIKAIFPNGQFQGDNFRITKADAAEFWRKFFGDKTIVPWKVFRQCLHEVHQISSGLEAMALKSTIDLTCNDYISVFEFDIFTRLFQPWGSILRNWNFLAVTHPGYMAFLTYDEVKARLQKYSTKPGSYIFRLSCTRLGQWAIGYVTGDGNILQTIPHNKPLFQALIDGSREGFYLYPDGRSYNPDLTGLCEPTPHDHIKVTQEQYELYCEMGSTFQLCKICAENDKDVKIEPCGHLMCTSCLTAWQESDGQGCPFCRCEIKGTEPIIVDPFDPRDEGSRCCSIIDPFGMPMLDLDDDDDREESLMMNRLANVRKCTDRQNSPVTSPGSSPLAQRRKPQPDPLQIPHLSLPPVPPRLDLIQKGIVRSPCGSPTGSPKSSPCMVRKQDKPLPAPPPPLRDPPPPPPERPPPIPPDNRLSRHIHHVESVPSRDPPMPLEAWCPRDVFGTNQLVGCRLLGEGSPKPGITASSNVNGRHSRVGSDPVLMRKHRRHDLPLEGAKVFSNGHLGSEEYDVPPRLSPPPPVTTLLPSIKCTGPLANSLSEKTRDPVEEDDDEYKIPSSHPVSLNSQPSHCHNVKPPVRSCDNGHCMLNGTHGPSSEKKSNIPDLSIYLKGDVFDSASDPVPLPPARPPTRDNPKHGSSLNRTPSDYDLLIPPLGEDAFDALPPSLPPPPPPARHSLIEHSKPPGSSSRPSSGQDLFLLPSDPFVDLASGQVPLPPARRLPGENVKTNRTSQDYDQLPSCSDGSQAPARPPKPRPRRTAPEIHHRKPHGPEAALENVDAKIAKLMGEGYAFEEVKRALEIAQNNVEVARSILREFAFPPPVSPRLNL

`Cn1cnnc1CC1(c2cccc(N3Cc4c(cc(CN5CCC(COCCOCCOc6ccc7c(c6)C(=O)N(C6CCC(=O)NC6=O)C7=O)CC5)cc4C(F)(F)F)C3=O)c2)COC1` (stereo not drawn) [Example 89, 2-(2,6-dioxopiperidin-3-yl)-5-(2-{2-[(1-{[2-(3-{3-[(4-methyl-4H-1,2,4-triazol-3-yl)methyl]oxetan-3-yl}phenyl)-3-oxo-7-(trifluoromethyl)-2,3-dihydro-1H-isoindol-5-yl]methyl}piperidin-4-yl)methoxy]ethoxy}ethoxy)-2,3-dihydro-1H-isoindole-1,3-dione]: the DC50 on Cbl-b [1] and on Cbl-b [2] was > 500 nM in each case.
As usually defined, the Dmax is the largest share of the target that was removed. In the case of `C[C@H]1C[C@@H](CN2CCN(c3cccc4c3C(=O)N(C3CCC(=O)NC3=O)C4=O)CC2)CN(Cc2cc3c(c(C(F)(F)F)c2)CN(c2cccc(C4(Cc5nncn5C)COC4)c2)C3=O)C1` (stereo partly drawn) [Example 90, 2-(2,6-dioxopiperidin-3-yl)-4-(4-{[(3R,5S)-5-methyl-1-{[2-(3-{3-[(4-methyl-4H-1,2,4-triazol-3-yl)methyl]oxetan-3-yl}phenyl)-3-oxo-7-(trifluoromethyl)-2,3-dihydro-1H-isoindol-5-yl]methyl}piperidin-3-yl]methyl}piperazin-1-yl)-2,3-dihydro-1H-isoindole-1,3-dione], the DC50 on Cbl-b [1] and on Cbl-b [2] was > 500 nM in each case. The Dmax at Cbl-b [1] is < 35%.
As for `Cn1cnnc1CC1(c2cccc(N3Cc4c(cc(CN5CCC(COCCOCCOc6cccc7c6C(=O)N(C6CCC(=O)NC6=O)C7=O)CC5)cc4C(F)(F)F)C3=O)c2)COC1` (stereo not drawn) [Example 91, 2-(2,6-dioxopiperidin-3-yl)-4-(2-{2-[(1-{[2-(3-{3-[(4-methyl-4H-1,2,4-triazol-3-yl)methyl]oxetan-3-yl}phenyl)-3-oxo-7-(trifluoromethyl)-2,3-dihydro-1H-isoindol-5-yl]methyl}piperidin-4-yl)methoxy]ethoxy}ethoxy)-2,3-dihydro-1H-isoindole-1,3-dione], the DC50 at Cbl-b [1] and on Cbl-b [2] was > 500 nM in each case.
Regarding `CC1CC(CN2CC3(CCN(c4ccc5c(c4)C(=O)N(C4CCC(=O)NC4=O)C5=O)CC3)C2)CN(Cc2cc3c(c(C(F)(F)F)c2)CN(c2cccc(C4(Cc5nncn5C)COC4)c2)C3=O)C1` (stereo not drawn) [Example 92, 2-(2,6-dioxopiperidin-3-yl)-5-{2-[(5-methyl-1-{[2-(3-{3-[(4-methyl-4H-1,2,4-triazol-3-yl)methyl]oxetan-3-yl}phenyl)-3-oxo-7-(trifluoromethyl)-2,3-dihydro-1H-isoindol-5-yl]methyl}piperidin-3-yl)methyl]-2,7-diazaspiro[3.5]nonan-7-yl}-2,3-dihydro-1H-isoindole-1,3-dione], the DC50 on Cbl-b [1] and at Cbl-b [2] was > 500 nM throughout.
As for `C[C@H]1C[C@@H](CN2CCC(CC3CCN(c4ccc5c(c4)C(=O)N(C4CCC(=O)NC4=O)C5=O)CC3)CC2)CN(Cc2cc3c(c(C(F)(F)F)c2)CN(c2cccc(C4(Cc5nncn5C)COC4)c2)C3=O)C1` (stereo partly drawn) [Example 93, 2-(2,6-dioxopiperidin-3-yl)-5-{4-[(1-{[(3S,5S)-5-methyl-1-{[2-(3-{3-[(4-methyl-4H-1,2,4-triazol-3-yl)methyl]oxetan-3-yl}phenyl)-3-oxo-7-(trifluoromethyl)-2,3-dihydro-1H-isoindol-5-yl]methyl}piperidin-3-yl]methyl}piperidin-4-yl)methyl]piperidin-1-yl}-2,3-dihydro-1H-isoindole-1,3-dione], at Cbl-b [1], the DC50 was in the range of 5 to 50 nM and the Dmax was in the range of 35 to 70%. Moreover, at Cbl-b [2], the DC50 was < 5 nM and the maximal degradation (Dmax) is < 35%.
The matching figures for `CC1CC(CN2CCC(CC3CCN(c4ccc5c(c4)C(=O)N(C4CCC(=O)NC4=O)C5=O)CC3)CC2)CN(Cc2cc3c(c(C(F)(F)F)c2)CN(c2cccc(C4(Cc5nncn5C)COC4)c2)C3=O)C1` (stereo not drawn) [Example 94, 2-(2,6-dioxopiperidin-3-yl)-5-[4-({1-[(5-methyl-1-{[2-(3-{3-[(4-methyl-4H-1,2,4-triazol-3-yl)methyl]oxetan-3-yl}phenyl)-3-oxo-7-(trifluoromethyl)-2,3-dihydro-1H-isoindol-5-yl]methyl}piperidin-3-yl)methyl]piperidin-4-yl}methyl)piperidin-1-yl]-2,3-dihydro-1H-isoindole-1,3-dione]: 5 to 50 nM, 35 to 70%, < 5 nM and 35 to 70%.
Consider `CC1CC(N2CCC(CC3CCN(c4ccc5c(c4)C(=O)N(C4CCC(=O)NC4=O)C5=O)CC3)CC2)CN(Cc2cc3c(c(C(F)(F)F)c2)CN(c2cccc(C4(Cc5nncn5C)COC4)c2)C3=O)C1` (stereo not drawn) [Example 95, 2-(2,6-dioxopiperidin-3-yl)-5-{4-[(5′-methyl-1′-{[2-(3-{3-[(4-methyl-4H-1,2,4-triazol-3-yl)methyl]oxetan-3-yl}phenyl)-3-oxo-7-(trifluoromethyl)-2,3-dihydro-1H-isoindol-5-yl]methyl}-[1,3′-bipiperidin]-4-yl)methyl]piperidin-1-yl}-2,3-dihydro-1H-isoindole-1,3-dione], for which the DC50 on Cbl-b [1] is 50 to 500 nM; at Cbl-b [2] it was > 500 nM.
The matching figures for `Cn1cnnc1CC1(c2cccc(N3Cc4c(cc(CN5CCC[C@H](CN6CCC(C7CCN(c8ccc9c(c8)C(=O)N(C8CCC(=O)NC8=O)C9=O)CC7)CC6)C5)cc4C(F)(F)F)C3=O)c2)COC1` (stereo partly drawn) [Example 96, 2-(2,6-dioxopiperidin-3-yl)-5-(1′-{[(3R)-1-{[2-(3-{3-[(4-methyl-4H-1,2,4-triazol-3-yl)methyl]oxetan-3-yl}phenyl)-3-oxo-7-(trifluoromethyl)-2,3-dihydro-1H-isoindol-5-yl]methyl}piperidin-3-yl]methyl}-[4,4′-bipiperidin]-1-yl)-2,3-dihydro-1H-isoindole-1,3-dione]: > 500 nM and > 500 nM.
As for `Cn1cnnc1CC1(c2cccc(N3Cc4c(cc(CN5CCC[C@H](CN6CCC(CN7CCC(CN8CCN(c9ccc%10c(c9)C(=O)N(C9CCC(=O)NC9=O)C%10=O)CC8)CC7)CC6)C5)cc4C(F)(F)F)C3=O)c2)COC1` (stereo partly drawn) [Example 97, 2-(2,6-dioxopiperidin-3-yl)-5-[4-({1-[(1-{[(3R)-1-{[2-(3-{3-[(4-methyl-4H-1,2,4-triazol-3-yl)methyl]oxetan-3-yl}phenyl)-3-oxo-7-(trifluoromethyl)-2,3-dihydro-1H-isoindol-5-yl]methyl}piperidin-3-yl]methyl}piperidin-4-yl)methyl]piperidin-4-yl}methyl)piperazin-1-yl]-2,3-dihydro-1H-isoindole-1,3-dione], the DC50 on Cbl-b [1] is 5 to 50 nM; at Cbl-b [2] it was < 5 nM. The Dmax is > 70% at Cbl-b [1] and 35 to 70% at Cbl-b [2].
Take `Cn1cnnc1CC1(c2cccc(N3Cc4c(cc(CN5CCC[C@H](CN6CCC7(CC6)CCN(c6ccc8c(c6)C(=O)N(C6CCC(=O)NC6=O)C8=O)CC7)C5)cc4C(F)(F)F)C3=O)c2)COC1` (stereo partly drawn) [Example 98, 2-(2,6-dioxopiperidin-3-yl)-5-(9-{[(3R)-1-{[2-(3-{3-[(4-methyl-4H-1,2,4-triazol-3-yl)methyl]oxetan-3-yl}phenyl)-3-oxo-7-(trifluoromethyl)-2,3-dihydro-1H-isoindol-5-yl]methyl}piperidin-3-yl]methyl}-3,9-diazaspiro[5.5]undecan-3-yl)-2,3-dihydro-1H-isoindole-1,3-dione]: the DC50 at Cbl-b [1] and on Cbl-b [2] was > 500 nM each time.
